Columns and labels:
Test in all cases: Test B pre-/postemergence plant response
Format in all cases: in vivo
[1] = system: Italian ryegrass (Lolium multiflorum)
Source text: (§1) Seeds of plant species selected from blackgrass (Alopecurus myosuroides), downy bromegrass (Bromus tectorum), green foxtail (Setaria viridis), Italian ryegrass (Lolium multiflorum), wheat (Triticum aestivum), wild oat (Avena fatua), catchweed bedstraw (Galium aparine), bermudagrass (Cynodon dactylon), surinam grass (Brachiaria decumbens), cocklebur (Xanthium strumarium), corn (Zea mays), large crabgrass (Digitaria sanguinalis), woolly cupgrass (Eriochloa villosa), giant foxtail (Setaria faberii), goosegrass (Eleusine indica), johnsongrass (Sorghum halepense), kochia (Kochia scoparia), lambsquarters (Chenopodium album), morningglory (Ipomoea coccinea), eastern black (E.B.) nightshade (Solanum ptycanthum), yellow nutsedge (Cyperus esculentus), pigweed (Amaranthus retroflexus), common ragweed (Ambrosia elation), Russian thistle (Salsola iberica), soybean (Glycine max), common (oilseed) sunflower (Helianthus annuus), and velvetleaf (Abutilon theophrasti) were planted and treated preemergence with test chemicals formulated in a non-phytotoxic solvent mixture which included a surfactant.
(§2) At the same time, plants selected from these crop and weed species and also winter barley (Hordeum vulgare), canarygrass (Phalaris minor), chickweed (Stellaria media) and windgrass (Apera spica-venti) were treated with postemergence applications of some of the test chemicals formulated in the same manner. Plants ranged in height from 2 to 18 cm (1- to 4-leaf stage) for postemergence treatments.
(§3) Plant species in the flooded paddy test consisted of rice (Oryza sativa), umbrella sedge (Cyperus difformis), ducksalad (Heteranthera limosa) and barnyardgrass (Echinochloa crus-galli) grown to the 2-leaf stage for testing. At time of treatment, test pots were flooded to 3 cm above the soil surface, treated by application of test compounds directly to the paddy water, and then maintained at that water depth for the duration of the test. Treated plants and controls were maintained in a greenhouse for 13 to 15 days, after which time all species were compared to controls and visually evaluated. Plant response ratings, summarized in Table B, are based on a scale of 0 to 100 where 0 is no effect and 100 is complete control. A dash (-) response means no test result.

[2] = system: blackgrass (Alopecurus myosuroides); conditions: for Blackgrass plant response rating: 8 g ai/ha
Source text: as §1, §2, §3

[3] = system: catchweed bedstraw (Galium aparine); conditions: Preemergence, scale 0 to 100
Source text: as §1, §2, §3

[4] = system: downy bromegrass (Bromus tectorum); conditions: for Bromegrass, Downy plant response rating: 8 g ai/ha
Source text: as §1, §2, §3

[5] = system: eastern black (E.B.) nightshade (Solanum ptycanthum); conditions: Preemergence
Source text: as §1, §2, §3

[6] = system: giant foxtail (Setaria faberii)
Source text: as §1, §2, §3

[7] = system: green foxtail (Setaria viridis)
Source text: as §1, §2, §3

[8] = system: johnsongrass (Sorghum halepense)
Source text: as §1, §2, §3

[9] = system: morningglory (Ipomoea coccinea)
Source text: as §1, §2, §3

[10] = system: pigweed (Amaranthus retroflexus)
Source text: as §1, §2, §3

[11] = system: velvetleaf (Abutilon theophrasti)
Source text: as §1, §2, §3

wild oat (Avena fatua) = system: wild oat (Avena fatua)
Source text: as §1, §2, §3

[12] = system: woolly cupgrass (Eriochloa villosa)
Source text: as §1, §2, §3

[13] = system: yellow nutsedge (Cyperus esculentus)
Source text: as §1, §2, §3

[14] = 8 g ai/ha, postemergence, 0-100 scale
[15] = Postemergence, 16 g ai/ha, scale 0 to 100
[16] = Postemergence, 31 g ai/ha, scale 0 to 100
[17] = Postemergence, 62 g ai/ha, scale 0 to 100, 0 no effect, 100 complete control
[18] = Preemergence, 31 g ai/ha, scale 0 to 100 (0 no effect, 100 complete control)
[19] = Preemergence, 62 g ai/ha, scale 0 to 100
[20] = Preemergence, 8 g ai/ha, scale 0 to 100
[21] = Preemergence, 16 g ai/ha, scale 0 to 100
[22] = Preemergence, 16 g ai/ha, scale 0 to 100 (0 no effect, 100 complete control)
[23] = Preemergence, 31 g ai/ha, 0 to 100 scale, 0 no effect, 100 complete control

Cc1cc(-c2ccc(Cl)cc2)nn1-c1c(OC(=O)c2cccs2)cnn(C)c1=O [Compound 52]
Ryegrass, Italian plant response rating [1, 14]: 70
Plant response rating, Ryegrass, Italian [1, 15]: 80
Plant response rating, Ryegrass, Italian [1, 16]: 95
Plant response rating, Ryegrass, Italian [1, 17]: 100
Plant response rating, Ryegrass, Italian [1, 18]: 95
Plant response rating, Ryegrass, Italian [1, 19]: 100
Ryegrass, Italian plant response rating [1, 20]: 0
Ryegrass, Italian plant response rating [1, 21]: 95
Blackgrass plant response rating ([2]; postemergence, 0-100 scale): 50
Plant response rating, Blackgrass [2, 15]: 70
Plant response rating, Blackgrass [2, 16]: 95
Plant response rating, Blackgrass [2, 17]: 95
Plant response rating, Blackgrass [2, 22]: 95
Plant response rating, Blackgrass [2, 23]: 100
Plant response rating, Blackgrass [2, 19]: 100
Blackgrass plant response rating ([2]; Preemergence, scale 0 to 100): 0
Plant response rating, Galium ([3]; 62 g ai/ha): 0
Galium plant response rating ([3]; 8 g ai/ha): 0
Galium plant response rating ([3]; 16 g ai/ha): 0
Bromegrass, Downy plant response rating ([4]; postemergence, 0-100 scale): 30
Plant response rating, Bromegrass, Downy [4, 15]: 30
Plant response rating, Bromegrass, Downy [4, 16]: 40
Plant response rating, Bromegrass, Downy [4, 17]: 70
Plant response rating, Bromegrass, Downy [4, 22]: 35
Plant response rating, Bromegrass, Downy [4, 23]: 35
Plant response rating, Bromegrass, Downy [4, 19]: 80
Bromegrass, Downy plant response rating ([4]; Preemergence, scale 0 to 100): 0
Plant response rating, Nightshade, E. B. ([5]; 31 g ai/ha, scale 0 to 100 (0 no effect, 100 complete control)): 0
Plant response rating, Nightshade, E. B. ([5]; 62 g ai/ha, scale 0 to 100): 0
Nightshade, E. B. plant response rating ([5]; 8 g ai/ha, scale 0 to 100): 0
Nightshade, E. B. plant response rating ([5]; 16 g ai/ha, scale 0 to 100): 0
Foxtail, Giant plant response rating [6, 14]: 85
Plant response rating, Foxtail, Giant [6, 15]: 98
Plant response rating, Foxtail, Giant [6, 16]: 100
Plant response rating, Foxtail, Giant [6, 17]: 100
Plant response rating, Foxtail, Giant [6, 23]: 0
Plant response rating, Foxtail, Giant [6, 19]: 98
Foxtail, Giant plant response rating [6, 20]: 0
Foxtail, Giant plant response rating [6, 21]: 0
Foxtail, Green plant response rating [7, 14]: 80
Plant response rating, Foxtail, Green [7, 15]: 95
Plant response rating, Foxtail, Green [7, 16]: 98
Plant response rating, Foxtail, Green [7, 17]: 100
Plant response rating, Foxtail, Green [7, 23]: 100
Plant response rating, Foxtail, Green [7, 19]: 100
Foxtail, Green plant response rating [7, 20]: 90
Foxtail, Green plant response rating [7, 21]: 90
Johnsongrass plant response rating [8, 14]: 75
Plant response rating, Johnsongrass [8, 15]: 80
Plant response rating, Johnsongrass [8, 16]: 90
Plant response rating, Johnsongrass [8, 17]: 95
Plant response rating, Johnsongrass [8, 23]: 80
Plant response rating, Johnsongrass [8, 19]: 85
Johnsongrass plant response rating [8, 20]: 55
Johnsongrass plant response rating [8, 21]: 65
Morningglory plant response rating [9, 14]: 0
Plant response rating, Morningglory [9, 15]: 0
Plant response rating, Morningglory [9, 16]: 0
Plant response rating, Morningglory [9, 17]: 0
Plant response rating, Morningglory [9, 18]: 90
Plant response rating, Morningglory [9, 19]: 100
Morningglory plant response rating [9, 20]: 0
Morningglory plant response rating [9, 21]: 0
Pigweed plant response rating [10, 14]: 0
Plant response rating, Pigweed [10, 15]: 0
Plant response rating, Pigweed [10, 16]: 0
Plant response rating, Pigweed [10, 17]: 0
Plant response rating, Pigweed [10, 18]: 0
Plant response rating, Pigweed [10, 19]: 0
Pigweed plant response rating [10, 20]: 0
Pigweed plant response rating [10, 21]: 0
Velvetleaf plant response rating [11, 14]: 0
Plant response rating, Velvetleaf [11, 15]: 0
Plant response rating, Velvetleaf [11, 16]: 0
Plant response rating, Velvetleaf [11, 17]: 0
Plant response rating, Velvetleaf [11, 18]: 0
Plant response rating, Velvetleaf ([11]; Preemergence, 62 g ai/ha, 0 to 100 scale, 0 no effect, 100 complete control): 0
Velvetleaf plant response rating [11, 20]: 0
Velvetleaf plant response rating [11, 21]: 0
Oat, Wild plant response rating (wild oat (Avena fatua); [14]): 50
Plant response rating, Oat, Wild (wild oat (Avena fatua); [15]): 90
Plant response rating, Oat, Wild (wild oat (Avena fatua); [16]): 95
Plant response rating, Oat, Wild (wild oat (Avena fatua); [17]): 100
Plant response rating, Oat, Wild (wild oat (Avena fatua); [18]): 70
Plant response rating, Oat, Wild (wild oat (Avena fatua); [19]): 90
Oat, Wild plant response rating (wild oat (Avena fatua); [20]): 0
Oat, Wild plant response rating (wild oat (Avena fatua); [21]): 30
Cupgrass, Woolly plant response rating [12, 14]: 75
Plant response rating, Cupgrass, Woolly [12, 15]: 90
Plant response rating, Cupgrass, Woolly [12, 16]: 95
Plant response rating, Cupgrass, Woolly [12, 17]: 100
Plant response rating, Cupgrass, Woolly [12, 23]: 0
Plant response rating, Cupgrass, Woolly [12, 19]: 0
Cupgrass, Woolly plant response rating [12, 20]: 0
Cupgrass, Woolly plant response rating [12, 21]: 0
Nutsedge, Yellow plant response rating [13, 14]: 0
Plant response rating, Nutsedge, Yellow [13, 15]: 0
Plant response rating, Nutsedge, Yellow [13, 16]: 0
Plant response rating, Nutsedge, Yellow [13, 17]: 0
Plant response rating, Nutsedge, Yellow [13, 18]: 0
Plant response rating, Nutsedge, Yellow [13, 19]: 0
Nutsedge, Yellow plant response rating [13, 20]: 0
Nutsedge, Yellow plant response rating [13, 21]: 0

Source: patent US20100267561A1, “HERBICIDAL PYRIDAZINONE DERIVATIVES” (priority 2007, published 2010)
